Results: PMC5750218, “Protein-inspired antibiotics active against vancomycin- and daptomycin-resistant bacteria” (Nature Communications, 2018)
≈ marks a conversion by molar mass, not a printed value. Where “and” joins values, the source holds several entries; their conditions need not be identical. Equal values may be shown once. Read-outs that look alike come from different tables or passages of the source.

How the values were obtained:
[1] = test system: Vancomycin-resistant (VanA) Enterococcus faecium ATCC 51559; experiment: microbe, parasite or virus in culture
Outline: (§1)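 MICs were determined by broth microdilution in Mueller Hinton broth. Bacteria were pregrown overnight, diluted 40-fold and regrown 2–3 h at 37 °C.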

[2] = test system: Multi-drug-resistant S. pneumoniae ATCC 700677; experiment: microbe, parasite or virus in culture
Outline: as §1

[3] = test system: Vancomycin-intermediate S. aureus NRS1; experiment: microbe, parasite or virus in culture
Outline: as §1

[4] = test system: Methicillin-sensitive S. aureus ATCC 29213; experiment: microbe, parasite or virus in culture; format: cell-based, Staphylococcus aureus; settings: for MIC: Staphylococcus aureus, ATCC 29213 / MSSA
Procedure: Antimicrobial activity of compounds was tested against a number of bacterial strains by broth microdilution (BMD) assay with MIC determination, including S. aureus (MSSA ATCC® 29213™, MRSA ATCC® 43300™, VISA NARSA NRS1, VISA NARSA NRS4), Streptococcus pneumoniae (MDR ATCC® 700677™) and Enterococcus faecium (MDR VanA ATCC® 51559™). ATCC strains were sourced from the American Type Culture Collection and NRS strains from NARSA (Network on Antimicrobial Resistance in S. aureus) via BEI Resources (www.beiresources.org). All compounds were prepared to 160 µg mL^−1 solution in water from a stock solution of 1 mM concentration.
[…] […] Standards ranged from 64 to 0.03 µg mL^−1 and compounds from 8 to 0.003 µg mL^−1 with final assay volumes of 100 µL per well. Gram-positive bacteria were cultured in Mueller Hinton broth (MHB) (Bactolaboratories, Cat. no. 211443) at 37 °C overnight. A sample of each culture was then diluted 40-fold in fresh MHB and incubated at 37 °C for 2–3 h. The resultant mid-log phase cultures were added to the compound-containing 96-well plates to give a final cell density of 5 × 10^5 colony forming unit (CFU) mL^−1. All the plates were covered and incubated at 37 °C for 24 h. MICs were the lowest concentration showing no visible growth.

S. aureus ATCC 43300 = experiment: Membrane permeability assay (propidium iodide); format: cell-based, Staphylococcus aureus
Procedure: To evaluate the ability of the compounds to disrupt the cytoplasmic membrane integrity, the membrane impermeable fluorescent DNA intercalating dye propidium iodide (PI) was used. Early exponential phase cells were pelleted and washed twice in 10 mM HEPES buffer (pH 7.4) containing 50 µg mL^−1 of CaCl2 and 5 mM glucose, and then re-suspended in the same buffer (4 × 10^8 CFU mL^−1). Cell suspension was added to a 384-well black walled polystyrene plate (Corning, CLS3573) containing compounds, giving a final concentration of 16 µg mL^−1. After 1 h incubation at 37 °C, 5 µg mL^−1 of PI was added and fluorescence was monitored for 90 min using a Tecan Infinite® m1000 Pro Multi-mode reader (excitation/emission 535/620 nm). Data were corrected by subtraction of fluorescence signal arising from untreated cells in the presence of PI. […] Each sample was tested in quadruplicate and independent assays were performed twice showing similar results. Data was analysed and presented using Prism software.

[5] = test system: Methicillin-resistant S. aureus ATCC 43300; experiment: microbe, parasite or virus in culture; settings: for MIC: Staphylococcus aureus, ATCC43300|MRSA
Outline: as §1

Cytotoxicity MTT assay = format: cell-based, human; settings: human
Outline: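 HepG2 and HEK293 cells, 1.5 × 10^4 per well in DMEM with 1% FBS, were allowed to attach for 24 h, then exposed 24 h at 37 °C to compounds at 100 µM to 0.046 µM in threefold steps. MTT (0.4 mg mL^−1) was added for 2 h, and formazan in DMSO was read at 570 nm. Viability is given as percent of control, corrected for a positive control.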

[6] = test system: Vancomycin-resistant S. aureus NARSA VRS4; experiment: microbe, parasite or virus in culture; format: cell-based, Staphylococcus aureus
[7] = polystyrene plate with 0.002% polysorbate-80
[8] = polystyrene plate, no polysorbate-80

Structure (SMILES) | MIC S. aureus ATCC29213 MSSA, NBS ([4]; non-binding surface plate) [µg/mL] | MIC S. aureus ATCC29213 MSSA, PS+P-80 [4, 7] [µg/mL] | Membrane permeabilisation (propidium iodide fluorescence) (S. aureus ATCC 43300) | MIC S. aureus ATCC 43300 MRSA, PS [5, 8] | MIC VRE ([1]; ATCC 51559) [µg/mL] | MIC MDR S.P. ([2]; ATCC 700677) [µg/mL] | MIC VISA ([3]; Vancomycin-intermediate NRS1) [µg/mL] | MIC S. aureus ATCC29213 MSSA, PP ([4]; ATCC 29213) [µg/mL] | MIC S. aureus ATCC29213 MSSA, PS ([4]; ATCC 29213) [µg/mL] | CC50 at 24 h (Cytotoxicity MTT assay) [µM] | MIC S. aureus ATCC 43300 MRSA, NBS ([5]; ATCC 43300) [µg/mL] | MIC S. aureus ATCC 43300 MRSA, PP ([5]; ATCC 43300) [µg/mL] | MIC S. aureus ATCC 43300 MRSA, PS+P-80 ([5]; ATCC 43300) [µg/mL] | MIC MRSA ([5]; ATCC 43300, 24 h) [µg/mL] | other results
CN[C@H]1C(=O)N[C@@H]2Cc3ccc(cc3)Oc3cc4cc(c3O[C@@H]3O[C@H](C(=O)O)[C@@H](O)[C@H](O)[C@H]3NC(=O)CCCCCCCCC(C)C)Oc3ccc(cc3Cl)[C@@H](O)[C@@H]3NC(=O)[C@H](NC(=O)[C@@H]4NC(=O)[C@@H](NC2=O)c2cc(cc(O)c2Cl)Oc2cc1ccc2O)c1ccc(O)c(c1)-c1c(O[C@H]2O[C@H](CO)[C@@H](O)[C@H](O)[C@@H]2O)cc(O)cc1[C@@H](C(=O)NCCCN(C)C)NC3=O [Compound 3, Dalbavancin] | ≤ 0.016 | ≤ 0.016 | little to no effect | 0.25 µg/mL (≈ 0.138 µM) | – | – | – | – | – | – | – | – | – | – | MIC VRE ([1]; E. faecium MDR VanA ATCC 51559, substance alone): >8 µg/mL; MIC MDR S.P. ([2]; S. pneumoniae ATCC 700677): 0.09 µg/mL (≈ 0.0495 µM); MIC VISA ([3]; S. aureus NRS1): 1 µg/mL (≈ 0.55 µM); MIC MSSA ([4]; S. aureus ATCC 29213): ≤0.016 µg/mL; MIC S. aureus ATCC29213 MSSA, PP ([4]; polypropylene plate): 0.125 µg/mL (≈ 0.0688 µM); MIC S. aureus ATCC29213 MSSA, PS [4, 8]: 0.25 µg/mL (≈ 0.138 µM); MIC MRSA ([5]; S. aureus ATCC 43300, NBS plates, MHB, 24 h, substance alone): 0.06 µg/mL and 0.03 µg/mL; MIC S. aureus ATCC 43300 MRSA, NBS ([5]; non-binding surface plate): ≤ 0.016 µg/mL; MIC S. aureus ATCC 43300 MRSA, PP ([5]; polypropylene plate): 0.063 µg/mL (≈ 0.0347 µM); MIC S. aureus ATCC 43300 MRSA, PS+P-80 [5, 7]: ≤ 0.016 µg/mL
CCCCCCCCCCCCCC(=O)N[C@@H](CCCCN)C(=O)N[C@@H](CCCCN)C(=O)N[C@@H](CCCCN)C(=O)N[C@@H](CCCCNC(=O)[C@H]1NC(=O)[C@H]2NC(=O)[C@H](NC(=O)[C@@H]3NC(=O)[C@H](CC(N)=O)NC(=O)[C@H](NC(=O)[C@@H](CC(C)C)NC)[C@H](O)c4ccc(c(Cl)c4)Oc4cc3cc(c4O[C@@H]3O[C@H](CO)[C@@H](O)[C@H](O)[C@H]3O[C@H]3C[C@](C)(N)[C@H](O)[C@H](C)O3)Oc3ccc(cc3Cl)[C@H]2O)c2ccc(O)c(c2)-c2c(O)cc(O)cc21)C(=O)O [Compound 17, nC13CO-KKK-K(Vancomycin)-OH] | ≤ 0.016 | ≤ 0.016 | comparable fluorescence intensity to oritavancin | 1 µg/mL and 1 to 2 µg/mL | 0.125 (≈ 0.0575 µM) | <0.003 | 0.03 (≈ 0.0138 µM) | 1 to 2 | 1 (≈ 0.46 µM) | 19 | ≤ 0.016 | 1 (≈ 0.46 µM) | ≤ 0.016 | <0.003 | –
CCCCCCCCCCC(=O)N[C@@H](CCCCN)C(=O)N[C@@H](CCCCN)C(=O)N[C@@H](CCCCNC(=O)[C@H]1NC(=O)[C@H]2NC(=O)[C@H](NC(=O)[C@@H]3NC(=O)[C@H](CC(N)=O)NC(=O)[C@H](NC(=O)[C@@H](CC(C)C)NC)[C@H](O)c4ccc(c(Cl)c4)Oc4cc3cc(c4O[C@@H]3O[C@H](CO)[C@@H](O)[C@H](O)[C@H]3O[C@H]3C[C@](C)(N)[C@H](O)[C@H](C)O3)Oc3ccc(cc3Cl)[C@H]2O)c2ccc(O)c(c2)-c2c(O)cc(O)cc21)C(=O)O [Compound 19, nC10CO-KK-K(Vancomycin)-OH] | – | – | little to no effect | – | 6 (≈ 3 µM) | 0.06 (≈ 0.03 µM) | 0.5 (≈ 0.25 µM) | 0.125 to 0.25 | 0.03 to 0.06 | 355 | ≤ 0.016 | 0.06 to 0.125 | 0.063 (≈ 0.0315 µM) | 0.03 (≈ 0.015 µM) | MIC S. aureus ATCC29213 MSSA, NBS ([4]; ATCC 29213): ≤ 0.016 µg/mL; MIC S. aureus ATCC29213 MSSA, PS+P-80 ([4]; ATCC 29213): 0.031 µg/mL (≈ 0.0155 µM); MIC VRSA ([6]; Vancomycin-resistant NARSA VRS4): 1 µg/mL (≈ 0.499 µM); MIC S. aureus ATCC 43300 MRSA, PS ([5]; ATCC 43300): 0.063 µg/mL (≈ 0.0315 µM)
CN[C@H](CC(C)C)C(=O)N[C@H]1C(=O)N[C@@H](CC(N)=O)C(=O)N[C@H]2C(=O)N[C@H]3C(=O)N[C@H](C(=O)N[C@H](C(=O)O)c4cc(O)cc(O)c4-c4cc3ccc4O)[C@H](O[C@H]3C[C@](C)(N)[C@@H](O)[C@H](C)O3)c3ccc(c(Cl)c3)Oc3cc2cc(c3O[C@@H]2O[C@H](CO)[C@@H](O)[C@H](O)[C@H]2O[C@H]2C[C@](C)(NCc3ccc(-c4ccc(Cl)cc4)cc3)[C@@H](O)[C@H](C)O2)Oc2ccc(cc2Cl)[C@H]1O [Compound 5, Oritavancin, reference compound] | – | – | – | – | – | – | – | – | – | – | – | – | – | – | MIC ([1]; Enterococcus faecium, ATCC51559 / VRE, read-out: MIC VRE): 0.125 µg/mL (≈ 0.0697 µM); MIC ([2]; Streptococcus pneumoniae, ATCC700677, read-out: MIC MDR S.P.): 0.06 µg/mL (≈ 0.0335 µM); MIC ([3]; Staphylococcus aureus, NRS1 / VISA, read-out: MIC VISA): 1 µg/mL (≈ 0.558 µM); MIC ([4]; read-out: MIC MSSA): ≤ 0.016 µg/mL; MIC ([4]; read-out: MIC S. aureus ATCC29213 MSSA, NBS): ≤ 0.016 µg/mL; MIC ([4]; read-out: MIC S. aureus ATCC29213 MSSA, PP): 1 µg/mL (≈ 0.558 µM); MIC ([4]; read-out: MIC S. aureus ATCC29213 MSSA, PS): 1 µg/mL (≈ 0.558 µM); MIC ([4]; read-out: MIC S. aureus ATCC29213 MSSA, PS+P-80): 0.031 µg/mL (≈ 0.0173 µM); MIC ([6]; Staphylococcus aureus, VRSA, read-out: MIC VRSA): 0.125 µg/mL (≈ 0.0697 µM); CC50 at 24 h (Cytotoxicity MTT assay; 24 h, MTT, 1% FBS, read-out: Cytotoxicity CC50 HEK293): 29 µM; MIC ([5]; 24 h, read-out: MIC MRSA, S. aureus ATCC 43300, NBS plates, MHB, 24 h, substance alone): 0.06 µg/mL (≈ 0.0335 µM); MIC ([5]; read-out: MIC S. aureus ATCC 43300 MRSA, NBS, non-binding surface plate): ≤ 0.016 µg/mL; MIC ([5]; read-out: MIC S. aureus ATCC 43300 MRSA, PP, polypropylene plate): 1 µg/mL (≈ 0.558 µM); MIC ([5]; read-out: MIC S. aureus ATCC 43300 MRSA, PS+P-80, polystyrene plate with 0.002% polysorbate-80): ≤ 0.016 µg/mL; MIC ([5]; read-out: MIC S. aureus ATCC 43300 MRSA, PS, polystyrene plate, no polysorbate-80): 1 µg/mL (≈ 0.558 µM)
